Data from patent publication US11718614B2, “Compounds and methods for treatment of hedgehog pathway associated conditions” (Suzhou Mednes Pharma Tech Co., Ltd., priority 2018, dated 2023).

Test system: tumor cells from medulloblastoma developed from mice with deficiency in Patched1 gene
Assay: MB assay: survival of medulloblastoma tumor cells by MTT after 48 hours
Assay type: cell-based
Details: Mus musculus, tumor cells treated 48 hours, cell survival by MTT
Experimental: To test the effect of the novel compounds on the proliferation of tumor cell, we isolated tumor cells from medulloblastoma developed from mice with deficiency in Patched1 gene. Tumor cells were plated in vitro as previously described, and treated with various concentration of compounds for 48 hours. Tumor cells cultured were then harvested to measure cell survival based on MTT assay. The IC50 value for each compound was calculated using Prism the statistical software.
Table 1 below summarizes the IC50 data obtained using MB assay for exemplary compounds of the invention. IC50 values are shown as A, B, C, or D. A represents IC50 value between 1.0 μM and 5.0 μM; B is between 5.0 μM and 10 μM; C is between 10 μM to 20 μM; and D indicates greater than 20 μM.

Structure (SMILES): COC(=O)C(C)(C)Cc1nc2cc(OC)ccc2n1Cc1ccccc1Cl [Compound 58]
- IC50: > 20 µM
